Data on 7 molecules can be found in patent US9198913B2, “Nitroimidazooxazines and their uses in anti-tubercular therapy” (priority 2009, dated 2015).

Values after ≈ are worked out from the molar mass of the structure shown.

Data set [1] is described as follows: Stability to human liver microsomes.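 Note: parent compound quantified by LC-MS/MS against an internal standard, duplicates averaged, expressed relative to the 0 min sample taken as 100%.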 Type of data set: in vitro ADME. To be noted: 1 μM, 37° C., 60 min, pooled human liver microsomes.
Data set [2] can be described thus: In vivo pharmacokinetics in mice.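 For all read-outs here: plasma and lung samples quantified by LC-MS/MS, dosing as a suspension in aqueous carboxymethylcellulose with Tween 80.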 The note with it: CD-1 mice, oral, 40 mg/kg; for Cmax: mouse, in vivo, plasma.
The nature of data set [3]: Water solubility (sonicated suspension, HPLC).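 For all read-outs here: concentration in the clear supernatant quantified by HPLC peak area against a DMSO standard solution of the same compound, corrected for dilution and injection volume.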 The data set is classed as physicochemical. To be noted: in water; for solubility at 15 min: thermodynamic from solid.
Data set [4] is described as follows: Stability to mouse liver microsomes.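 Note: analyte quantified by LC-MS/MS as ratio to internal standard peak area, mean of duplicates, 60 min value expressed relative to the 0 min level (100%).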 The data set is classed as in vitro ADME. The note with it: 1 μM, 37° C., 60 min, CD-1 mouse liver microsomes.

In the case of `O=[N+]([O-])c1cn2c(n1)OC[C@@H](OCc1ccc(-c3ccc(OC(F)(F)F)cc3)nn1)C2` [Compound 24, (6S)-2-Nitro-6-({6-[4-(trifluoromethoxy)phenyl]-3-pyridazinyl}methoxy)-6,7-dihydro-5H-imidazo[2,1-b][1,3]oxazine], the melting point was 194 °C (dec.). Also, the “Microsomes (% remaining, 1 h) Human” value in data set [1] amounted to 94%. Besides, in data set [2], the AUC lung came to 93900 ng·h/mL and the Cmax turned out to be 3560 ng/mL. For the same molecule, in data set [3], the Solubility came out at 6.1 µg/mL (≈ 13.9 µM). In data set [4], the “Microsomes (% remaining, 1 h) Mouse” value was 92%.
`O=[N+]([O-])c1cn2c(n1)OC[C@@H](OCc1ccc(Cc3ccc(OC(F)(F)F)cc3)cc1)C2` [Compound 17, (6S)-2-Nitro-6-({4-[4-(trifluoromethoxy)benzyl]benzyl}oxy)-6,7-dihydro-5H-imidazo[2,1-b][1,3]oxazine] had a melting point of 132 to 133 °C. Also, in data set [1], the “Microsomes (% remaining, 1 h) Human” value is listed as 85%. In data set [3], this molecule yielded a solubility at 15 min of 0.16 µg/mL (≈ 0.356 µM). For the same molecule, the “Microsomes (% remaining, 1 h) Mouse” value in data set [4] was determined as 70%.
For the molecule `O=C(O[C@@H]1COc2nc([N+](=O)[O-])cn2C1)N1CCN(c2ccc(OC(F)(F)F)cc2)CC1` [Compound 20, (6S)-2-Nitro-6,7-dihydro-5H-imidazo[2,1-b][1,3]oxazin-6-yl 4-[4-(trifluoromethoxy)phenyl]-1-piperazinecarboxylate], the melting point lay in the range of 166 to 168 °C. Moreover, the “Microsomes (% remaining, 1 h) Human” value in data set [1] came to 82%. This molecule gave an AUC lung in data set [2] of 169000 ng·h/mL. In data set [3], this molecule had a solubility at 15 min of 17 µg/mL (≈ 37.2 µM). Besides, the “Microsomes (% remaining, 1 h) Mouse” value in data set [4] was determined as 85%.
Molecule `O=[N+]([O-])c1cn2c(n1)OC[C@@H](OCc1ccc(-c3ccc(F)cn3)cc1)C2` [Compound 26, (6S)-6-{[4-(5-Fluoro-2-pyridinyl)benzyl]oxy}-2-nitro-6,7-dihydro-5H-imidazo[2,1-b][1,3]oxazine] gave a melting point of 180 to 181 °C. In addition, the “Microsomes (% remaining, 1 h) Human” value in data set [1] was 83%. In data set [3], this molecule showed a Solubility of 67 µg/mL (≈ 181 µM). The “Microsomes (% remaining, 1 h) Mouse” value in data set [4] was determined as 61%.
Consider `O=[N+]([O-])c1cn2c(n1)OC[C@@H](OCc1ccc(-c3ccc(OC(F)(F)F)cc3)nc1)C2` [Compound 6, (6S)-2-Nitro-6-({6-[4-(trifluoromethoxy)phenyl]-3-pyridinyl}methoxy)-6,7-dihydro-5H-imidazo[2,1-b][1,3]oxazine], for which the “Microsomes (% remaining, 1 h) Human” value in data set [1] worked out at 83%. In addition, in data set [2], the AUC lung was determined as 81000 ng·h/mL and the peak level (Cmax) was 12200 ng/mL. The Solubility in data set [3] was 2.3 µg/mL (≈ 5.27 µM). The “Microsomes (% remaining, 1 h) Mouse” value in data set [4] stood at 87%.
`O=[N+]([O-])c1cn2c(n1)OC[C@@H](OC/C=C/c1ccc(-c3ccc(OC(F)(F)F)cc3)cc1)C2` [Compound 19, (6S)-2-Nitro-6-({(2E)-3-[4′-(trifluoromethoxy)[1,1′-biphenyl]-4-yl]-2-propenyl}oxy)-6,7-dihydro-5H-imidazo[2,1-b][1,3]oxazine] gave a melting point of 220 to 221 °C. In addition, the “Microsomes (% remaining, 1 h) Human” value in data set [1] was found to be 100%. The molecule further returned a Solubility in data set [3] of 0.50 µg/mL (≈ 1.08 µM). In data set [4], the “Microsomes (% remaining, 1 h) Mouse” value is reported as 95%.
The matching figures for `O=[N+]([O-])c1cn2c(n1)OC[C@@H](OCc1ncc(-c3ccc(OC(F)(F)F)cc3)cn1)C2` [Compound 29, (6S)-2-Nitro-6-({5-[4-(trifluoromethoxy)phenyl]-2-pyrimidinyl}methoxy)-6,7-dihydro-5H-imidazo[2,1-b][1,3]oxazine]: 223 to 226 °C, 92%, 8.1 µg/mL (≈ 18.5 µM) and 87%.
